What all share (format): functional
For assay [1], the target named is T1, Cdk-related protein kinase 6 (Plasmodium falciparum, UniProt O77239).
T1 sequence (O77239 whole entry): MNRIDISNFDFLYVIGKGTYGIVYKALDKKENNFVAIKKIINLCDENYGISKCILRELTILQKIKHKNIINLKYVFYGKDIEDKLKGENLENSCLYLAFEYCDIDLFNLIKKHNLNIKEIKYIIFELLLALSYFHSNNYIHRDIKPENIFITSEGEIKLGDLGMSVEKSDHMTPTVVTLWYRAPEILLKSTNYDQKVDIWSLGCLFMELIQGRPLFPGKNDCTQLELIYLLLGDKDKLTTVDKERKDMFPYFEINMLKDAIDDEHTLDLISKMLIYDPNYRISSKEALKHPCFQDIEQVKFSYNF
As to the kind of experiment: Final concentrations were 1.5 uM ATP, 5 mM MnCl2, and 15 ug/ml PK6 in a buffer of 100 mM Tris-HCl (pH 7.5). 50 ug/mL MBP was provided as the substrate; 10 uM staurosporine was used as a control inhibitor. Incubation time was 3 hours and 40 minutes.The catalytic activity of each kinase was considered proportional to ATP consumed, as determined from measurements of residual [ATP] with the luciferase-based reagent Kinase-Glo (Promega) following incubation. Luminescence (proportional to residual [ATP]) was measured on the plate readers FLx800 (BioTek Instruments, Winooski, VT, USA) and MicroBeta2. In general terms: Kinase-Glo measures the ATP left after a reaction by luminescence.

Assay [2] deals with T2, Putative uncharacterized protein pk7 (Plasmodium falciparum, UniProt O96214).
T2 sequence (O96214 whole entry): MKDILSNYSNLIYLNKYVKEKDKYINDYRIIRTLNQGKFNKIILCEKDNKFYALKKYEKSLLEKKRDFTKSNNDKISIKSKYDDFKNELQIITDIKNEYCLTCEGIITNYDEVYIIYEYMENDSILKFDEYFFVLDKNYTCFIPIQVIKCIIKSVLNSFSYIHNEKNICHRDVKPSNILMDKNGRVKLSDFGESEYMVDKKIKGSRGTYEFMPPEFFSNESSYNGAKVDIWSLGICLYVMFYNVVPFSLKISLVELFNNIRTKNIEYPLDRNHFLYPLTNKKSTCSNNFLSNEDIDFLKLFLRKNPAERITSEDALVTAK
Kind of assay: Final concentrations were 1 uM ATP, 2 mM DTT, 20 mM MgCl2, 2 mM MnCl2, 0.01% BSA, and 6 ug/ml PK7, in a buffer of 20 mM Tris-HCl (pH 7.5). The enzyme itself was the only substrate present (since autophosphorylation occurs); 100 uM 1NA-PP1 was used as a control inhibitor. Incubation time was 3 hours.

Assay [3] has as its target T3, Mitogen-activated protein kinase (Plasmodium falciparum, UniProt Q25917).
T3 sequence (Q25917 whole entry): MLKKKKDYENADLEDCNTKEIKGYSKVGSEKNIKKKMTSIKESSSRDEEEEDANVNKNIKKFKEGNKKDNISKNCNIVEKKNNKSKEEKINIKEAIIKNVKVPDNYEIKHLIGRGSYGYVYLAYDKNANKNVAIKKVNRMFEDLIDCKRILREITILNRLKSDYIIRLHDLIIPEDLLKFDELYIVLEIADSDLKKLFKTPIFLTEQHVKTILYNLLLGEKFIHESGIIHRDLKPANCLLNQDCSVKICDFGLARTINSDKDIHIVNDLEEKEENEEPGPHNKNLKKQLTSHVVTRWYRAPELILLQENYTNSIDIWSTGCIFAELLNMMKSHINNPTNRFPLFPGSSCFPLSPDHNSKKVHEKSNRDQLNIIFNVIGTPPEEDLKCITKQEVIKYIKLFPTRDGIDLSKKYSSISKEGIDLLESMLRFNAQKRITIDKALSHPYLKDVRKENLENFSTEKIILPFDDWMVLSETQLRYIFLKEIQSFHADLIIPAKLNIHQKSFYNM
As to the kind of experiment: Final concentrations were 1 uM ATP, 0.5 mM DTT, 1 mM MgCl2, 0.5 mg/mL BSA, and 10 ug/ml MAP2 in a buffer of 50 mM HEPES (pH 7.0). 0.5 mg/mL histone III-S served as the substrate (13); 100 uM AMP-PNP, an ATP analog, was used as a control inhibitor. Incubation time was 4 hours.

Assay [4] deals with Calcium-dependent protein kinase 1 (Plasmodium falciparum, UniProt P62344). Kind of assay: MMV: CDPK1 Protein kinase inhibition assay using recombinant PfCDPK1, syntide 2 peptide substrate, ATP and KinaseGlo to measure % inhibition at 1 uM MMV box compound.
Sequence of Calcium-dependent protein kinase 1 (P62344 whole entry): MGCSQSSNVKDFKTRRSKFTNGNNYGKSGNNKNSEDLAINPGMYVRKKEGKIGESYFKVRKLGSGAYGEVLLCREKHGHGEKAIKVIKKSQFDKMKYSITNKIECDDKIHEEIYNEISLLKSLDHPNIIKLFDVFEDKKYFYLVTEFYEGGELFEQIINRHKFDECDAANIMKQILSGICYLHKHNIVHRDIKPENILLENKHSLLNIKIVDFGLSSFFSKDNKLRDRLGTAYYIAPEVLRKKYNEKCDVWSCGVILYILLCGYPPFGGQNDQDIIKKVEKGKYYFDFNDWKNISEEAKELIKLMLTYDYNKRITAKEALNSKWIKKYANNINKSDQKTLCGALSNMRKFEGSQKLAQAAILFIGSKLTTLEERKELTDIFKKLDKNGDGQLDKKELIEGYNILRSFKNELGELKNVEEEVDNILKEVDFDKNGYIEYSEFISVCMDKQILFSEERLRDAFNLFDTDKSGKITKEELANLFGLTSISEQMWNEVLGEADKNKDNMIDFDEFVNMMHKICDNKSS
Assay [5] addresses T4, Calcium-dependent protein kinase 4 (Plasmodium falciparum (isolate 3D7), UniProt Q8IBS5).
T4 sequence (Q8IBS5 whole entry): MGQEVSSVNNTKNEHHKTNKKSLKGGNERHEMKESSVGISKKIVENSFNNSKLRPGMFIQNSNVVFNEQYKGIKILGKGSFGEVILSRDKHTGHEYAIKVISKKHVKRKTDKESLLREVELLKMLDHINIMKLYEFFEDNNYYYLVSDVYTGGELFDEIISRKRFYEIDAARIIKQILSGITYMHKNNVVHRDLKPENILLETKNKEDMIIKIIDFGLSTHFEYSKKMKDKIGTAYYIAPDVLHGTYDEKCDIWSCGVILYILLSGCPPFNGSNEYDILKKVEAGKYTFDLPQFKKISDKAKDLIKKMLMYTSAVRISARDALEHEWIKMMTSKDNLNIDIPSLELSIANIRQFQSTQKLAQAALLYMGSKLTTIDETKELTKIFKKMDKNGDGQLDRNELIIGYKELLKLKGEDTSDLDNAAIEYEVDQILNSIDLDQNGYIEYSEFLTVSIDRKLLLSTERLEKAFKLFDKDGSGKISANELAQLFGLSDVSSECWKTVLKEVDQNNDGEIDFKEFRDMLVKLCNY
As to the kind of experiment: MMV: CDPK4 Protein kinase inhibition assay using recombinant PfCDPK4, syntide2 peptide substrate, ATP and KinaseGlo to measure % inhibition at 1 uM MMV box compound.

The target of a further assay is T5, Proline--tRNA ligase (Plasmodium falciparum (isolate 3D7), UniProt Q8I5R7).
T5 sequence (Q8I5R7 whole entry): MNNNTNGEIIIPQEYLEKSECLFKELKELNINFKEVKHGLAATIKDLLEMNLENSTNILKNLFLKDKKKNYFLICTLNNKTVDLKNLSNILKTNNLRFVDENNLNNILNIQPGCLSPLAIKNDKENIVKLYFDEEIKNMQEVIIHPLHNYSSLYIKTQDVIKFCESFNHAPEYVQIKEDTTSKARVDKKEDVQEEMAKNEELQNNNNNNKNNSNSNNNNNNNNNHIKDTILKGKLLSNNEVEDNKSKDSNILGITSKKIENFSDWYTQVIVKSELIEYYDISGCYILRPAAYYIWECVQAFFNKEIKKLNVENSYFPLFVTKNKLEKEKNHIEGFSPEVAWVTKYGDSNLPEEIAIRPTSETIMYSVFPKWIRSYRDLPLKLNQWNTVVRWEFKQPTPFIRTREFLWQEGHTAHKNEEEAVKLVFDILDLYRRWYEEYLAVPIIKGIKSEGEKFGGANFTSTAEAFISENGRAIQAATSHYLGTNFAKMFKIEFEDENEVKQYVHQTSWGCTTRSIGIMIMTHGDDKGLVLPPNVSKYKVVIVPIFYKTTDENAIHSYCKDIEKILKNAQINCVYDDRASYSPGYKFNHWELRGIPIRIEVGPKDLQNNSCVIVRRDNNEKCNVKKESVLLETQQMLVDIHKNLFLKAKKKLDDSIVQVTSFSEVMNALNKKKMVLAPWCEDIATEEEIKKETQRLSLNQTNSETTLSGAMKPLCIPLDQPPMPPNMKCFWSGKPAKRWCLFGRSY
As to the kind of experiment: MMV: ProRS recombinant Plasmodium falciparum Prolyl-tRNA-synthetase, assay with yeast tRNA, ATP, and proline and 3 uM MMV malaria box compound, assay read out with kinase glo as % inhibition.

A further assay has as its target Lysine--tRNA ligase (Plasmodium falciparum (isolate 3D7), UniProt Q8IDJ8). As to the kind of experiment: MMV: KRS recombinant Plasmodium falciparum Lysyl-tRNA-synthetase, assay with yeast tRNA, ATP, and lysine and 3 uM MMV malaria box compound, assay read out with kinase glo as % inhibition.

Sequence of Lysine--tRNA ligase (Q8IDJ8 whole entry): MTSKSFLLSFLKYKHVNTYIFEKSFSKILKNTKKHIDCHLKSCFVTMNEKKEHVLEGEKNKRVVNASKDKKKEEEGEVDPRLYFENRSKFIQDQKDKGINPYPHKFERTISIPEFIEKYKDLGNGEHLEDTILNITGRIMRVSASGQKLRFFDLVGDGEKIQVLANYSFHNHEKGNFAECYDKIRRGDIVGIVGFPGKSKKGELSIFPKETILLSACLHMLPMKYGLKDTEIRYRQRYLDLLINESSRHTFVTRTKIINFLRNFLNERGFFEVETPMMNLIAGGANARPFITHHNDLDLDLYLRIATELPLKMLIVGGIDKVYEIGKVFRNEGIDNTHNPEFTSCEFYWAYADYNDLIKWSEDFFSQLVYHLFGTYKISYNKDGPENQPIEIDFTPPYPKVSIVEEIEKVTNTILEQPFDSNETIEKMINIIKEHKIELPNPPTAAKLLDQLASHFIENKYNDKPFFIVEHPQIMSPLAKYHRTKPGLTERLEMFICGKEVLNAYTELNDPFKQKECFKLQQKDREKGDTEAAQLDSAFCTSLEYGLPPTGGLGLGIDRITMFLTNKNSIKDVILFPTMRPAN

The term IC50 denotes the point on the concentration scale where inhibition reaches its midpoint. Turning to `c1ccc2cc3c(Nc4ccc(N5CCOCC5)cc4)ccnc3cc2c1`, the IC50 in assay [1] was over 1000 nM; in assay [2], over 1000 nM; in assay [3] it was over 1000 nM; in assay [4], over 1000 nM; in assay [5], over 1000 nM; on Proline--tRNA ligase it was over 2500 nM. For the same compound, the IC50 on Lysine--tRNA ligase is over 2500 nM.
Turning to `CSC1=NC(=Nc2c(C)cccc2C)C2(CCC(C(C)(C)C)CC2)N1c1ccc(Cl)cc1` (centres undefined), the IC50 in assay [1] was over 1000 nM; in assay [2] it was over 1000 nM; in assay [3], over 1000 nM; in assay [4], over 1000 nM; in assay [5], over 1000 nM; on Proline--tRNA ligase, over 2500 nM. Moreover, at Lysine--tRNA ligase, the IC50 was over 2500 nM.
As for `Cc1ccc(OCCCCCCNCCO)c(C)c1`, the IC50 in assay [1] is over 1000 nM; in assay [2] it was over 1000 nM; in assay [3], over 1000 nM; in assay [4], over 1000 nM; in assay [5], over 1000 nM; on Proline--tRNA ligase, over 2500 nM. For the same compound, the IC50 on Lysine--tRNA ligase was over 2500 nM.
As to `CCOC(=O)C1=C(C)N=c2sc(=Cc3cc(Cl)ccc3O)c(=O)n2C1c1ccc(OC)cc1` (centres undefined), the IC50 in assay [1] was over 1000 nM; in assay [2] it was over 1000 nM; in assay [3] it was over 1000 nM; in assay [4], over 1000 nM; in assay [5] it was over 1000 nM; at Proline--tRNA ligase it was over 2500 nM. Besides, the IC50 on Lysine--tRNA ligase was over 2500 nM.
As for `CCOC(=O)C1=C(c2ccccc2)N=c2sc(=Cc3cc(C)n(-c4ccc(F)cc4)c3C)c(=O)n2C1c1cccc(OC)c1OC` (centres undefined), the IC50 was over 1000 nM in assay [1]; over 1000 nM in assay [2]; over 1000 nM in assay [3]; over 1000 nM in assay [4]; over 1000 nM in assay [5]; over 2500 nM on Proline--tRNA ligase. Moreover, on Lysine--tRNA ligase, the IC50 was over 2500 nM.
In the case of `c1ccc(-c2ccc(-c3nc4ccccc4[nH]3)cc2)cc1`, the 50% inhibitory concentration (IC50) in assay [1] was over 1000 nM; in assay [2], over 1000 nM; in assay [3], over 1000 nM; in assay [4], over 1000 nM; in assay [5], over 1000 nM; at Proline--tRNA ligase, over 2500 nM. The IC50 at Lysine--tRNA ligase was over 2500 nM.
Take `COc1ccc(CCN2CCC(CN(C)Cc3cnn(-c4ccccc4)c3)CC2)cc1`: the IC50 in assay [1] is over 1000 nM; in assay [2], over 1000 nM; in assay [3] it was over 1000 nM; in assay [4] it was over 1000 nM; in assay [5], over 1000 nM; on Proline--tRNA ligase it was over 2500 nM. Also, the IC50 at Lysine--tRNA ligase was over 2500 nM.
`COc1ccc(C)c2sc(N(Cc3cccnc3)C(=O)c3ccc(C#N)cc3)nc12`: the IC50 in assay [1] is over 1000 nM; in assay [2], over 1000 nM; in assay [3] it was over 1000 nM; in assay [4], over 1000 nM; in assay [5] it was over 1000 nM; on Proline--tRNA ligase, over 2500 nM. For the same compound, the IC50 at Lysine--tRNA ligase was over 2500 nM.
Take `COC(=O)c1ccc(Cl)c2c1C1C=CCC1C(c1cccc3ccccc13)N2` (centres undefined): the IC50 in assay [1] is over 1000 nM; in assay [2] it was over 1000 nM; in assay [3], over 1000 nM; in assay [4], over 1000 nM; in assay [5], over 1000 nM; at Proline--tRNA ligase, over 2500 nM. In addition, the IC50 on Lysine--tRNA ligase is over 2500 nM.
For the compound `c1ccc(/C2=N/c3ccccc3/N=C(/c3ccccc3)c3ccccc32)cc1`, the IC50 in assay [1] was over 1000 nM; in assay [2], over 1000 nM; in assay [3], over 1000 nM; in assay [4], over 1000 nM; in assay [5], over 1000 nM; on Proline--tRNA ligase it was over 2500 nM. In addition, at Lysine--tRNA ligase, the IC50 is over 2500 nM.
With `COc1ccc2nc(C)cc(Nc3cccc(O)c3)c2c1`, the IC50 in assay [1] was over 1000 nM; in assay [2], over 1000 nM; in assay [3], over 1000 nM; in assay [4] it was over 1000 nM; in assay [5], over 1000 nM; at Proline--tRNA ligase it was over 2500 nM. In addition, on Lysine--tRNA ligase, the IC50 was over 2500 nM.
Take `O=C(Nc1ccc(C23CC4CC(CC(c5ccccc5)(C4)C2)C3)cc1)c1cccs1`: the 50% inhibitory concentration (IC50) was over 1000 nM in assay [1]; over 1000 nM in assay [2]; over 1000 nM in assay [3]; over 1000 nM in assay [4]; over 1000 nM in assay [5]; over 2500 nM at Proline--tRNA ligase. For the same compound, the IC50 on Lysine--tRNA ligase is over 2500 nM.

Values taken from ChEMBL document CHEMBL3301562, “MMV Box screening against Plasmodium falciparum protein kinases and aminoacyl tRNA synthetases”.
